Test results published in patent publication US7981878B2, “Tumor treatment with gliotoxin derivatives” (priority 2005, dated 2011).

Key:
mouse cell line P388 = conditions: cited from earlier work
[1] = test system: HepG2 (hepatocellular carcinoma); assay: Cell count analysis HepG2; format: cell-based, human; conditions: HepG2, 200 nM gliotoxin, 72 h
Description: (§1) FIG. 8 a-d: Effects of gliotoxin on cell counts of various human tumour cell lines in vitro. Cell counts of a) hepatocellular carcinoma cell lines HepG2, Huh7, SNU398, Hep3b, HeLa (cervix) and the cholangiocarcinoma cell line NEC as well as b) the pancreatic cancer cell line Panc-1 and the melanoma cell lines d) MelJuso, Meljuso-Bcl-2 (+) and 607B after 72 h treatment with 200 nM gliotoxin; c-d) Cell count dose range experiments with c) pancreatic carcinoma cell lines Panc-1 and MiaPaCa as well as melanoma cell lines MelJuso, 518A2 and 607B using 25, 50 100 and 200 nM gliotoxin for 24 h. All data are given relative to control ±standard deviation.
(§2) Tumour cells were seeded at a density of 10,000 cells/well in 24-well plates. 24 h after seeding, medium containing gliotoxin was added to yield desired concentrations of gliotoxin. At time points indicated, culture medium was removed by suction. Adherent cells were washed with DPBS (Cambrex, Verviers, Belgium) and incubated with trypsin (Gibco) at 37° C. Detached cells were transferred to test tubes containing Cellpack isotonic fluid (Sysmex Europe, Bornbarch, Germany) and counted with a Coulter Z1 electronic cell counter (Beckman Coulter, Bedford, UK).

[2] = test system: SH1 (hairy cell carcinoma); assay: Apoptosis FACS in leukaemia cell line SH1; format: cell-based; conditions: SH1, 0.2 μM gliotoxin, 24 h
Description: (§3) FIG. 7: (A) The apoptotic activity of gliotoxin on further B-CLL patient samples (CLL4-CLL8) is illustrated. The (non-Notch2-associated) leukaemia cell lines (or the leukaemia cell lines not characterised by ligand-independent Notch2 fragments) Jurkat (T-ALL), SH1 (hairy cell carcinoma), RL-7 and K562 (CML) are resistant to a treatment with 0.2 μM (corresponding to 60 ng/ml) of gliotoxin. Cells were incubated for 24 h+/−gliotoxin, and the percentage of apoptotic cells (probidium-iodide+/annexinV+) was determined by means of FACS analysis. In none of the 4 non-Notch2-associated cell lines indicated, the application of 0.2 μM of gliotoxin led to a significant induction of apoptosis within 24 hours. The cytotoxic effect of Gliotoxin correlates with the Notch2 activity in leukemias. (B) Corresponding EMSA showing the activity of Notch2 in B-CLL cells and in leukemic cell lines (Jurkat, SH1, RL7, and K562).

[3] = test system: HeLa cells (cervix carcinoma); assay: Cell count analysis HeLa; format: cell-based, human; conditions: 0.2 μM gliotoxin, within 72 hours
Description: as §1, §2

[4] = test system: U937 (macrophage cell line); conditions: cited from earlier work
CD23 = CD23 expression (Notch2 target gene) in B-CLL cells by FACS; format: cell-based, human; conditions: 0.2 μM gliotoxin, 24 h
Description: (§4) FIG. 3: Gliotoxin is a potent Notch2 trans-activation inhibitor in B-CLL cells. (A) EMSA showing the inhibition of DNA-bound Notch2IC complexes in the presence of 0.2 μg Gliotoxin. B-CLL samples (n=10) were cultured in the presence of 1 ng/ml TPA with or without 0.2 μM Gliotoxin for 24 hours. Nuclear extracts were subjected to EMSA using a oligonucleotide probe spanning a well defined CBF1/NotchIC binding site derived from the CD23a promoter. (B). Corresponding FACS analysis (plus 10 additional B-CLL samples) showing the downregulation of the Notch2 target gene CD23 as well as the induction of apoptosis of Gliotoxin treated B-CLL samples. Columnes represent the percentage of CD19^+CD23^+ (grey bars) and apoptotic cells (black bars: including early apoptotic cells single positive for AnnexinV, and late apoptotic cells double positive for AnnexinV and probidium iodide), respectively.
As drug screening model, a cell culture system was established which conserves the phenotype of freshly isolated B-CLL cells (3×10^6 B-CLL cells/ml RPMI medium+10% FCS, supplemented with 1 ng/ml of TPA). Notch2 activity in the cell nucleus is determined by means of EMSA (electrophoretic mobility shift assay) experiments, and the cell viability (Probidium iodide/annexinV) and CD23 expression (Notch2 target gene) is determined by means of FACS (flow cytometry) analyses, respectively. […]

607B (melanoma) = assay: Cell count analysis 607B; format: cell-based, human
Description: as §1, §2

B-CLL cells = assay: Apoptosis of B-CLL cells by FACS (Probidium iodide/annexinV); format: cell-based, human; conditions: for apoptosis: 0.2 μM gliotoxin, 4 hours
Description: as §4
FIG. 4: Gliotoxin induces apoptosis in unstimulated as well as in TPA-stimulated B-CLL cells within 4 hours. Normal PBMCs (peripheral blood mononuclear cells) from healthy donors show a markedly lower Notch2 activity. Although gliotoxin inhibits Notch2 also in normal, TPA-stimulated cells, the gliotoxin-caused apoptosis rate is markedly lower in normal cells as compared to B-CLL cells. Non-stimulated and TPA stimulated PBMC's from healthy donors (HD) are less sensitive to 0.2 μM Gliotoxin despite a basal Notch2 activity. PBMC's and CLL cells were incubated with 0.2 μM Gliotoxin with or without TPA for 4 hours and the Notch2 activity as well as the percentage of apoptotic cells were determined by EMSA and FACS analysis, respectively.
As drug screening model, a cell culture system was established which conserves the phenotype of freshly isolated B-CLL cells (3×10^6 B-CLL cells/ml RPMI medium+10% FCS, supplemented with 1 ng/ml of TPA). Notch2 activity in the cell nucleus is determined by means of EMSA (electrophoretic mobility shift assay) experiments, and the cell viability (Probidium iodide/annexinV) and CD23 expression (Notch2 target gene) is determined by means of FACS (flow cytometry) analyses, respectively.
B-CLL cells were cultured for 24 h in the presence of 0.2 μM/ml of gliotoxin. This treatment led to a dramatic loss of the transcriptional Notch2 activity, as shown in the following representative EMSA (FIG. 3).
After 4 hours of gliotoxin treatment, massive signs of the starting apoptosis (AnnexinV+) could already be recognized in B-CLL cells. This effect was increased by TPA (a phorbol ester which stimulates the activation of lymphocytes).

Jurkat (T-ALL) = assay: Apoptosis FACS in leukaemia cell line Jurkat; format: cell-based; conditions: 0.2 μM gliotoxin, 24 h
Description: as §3

[5] = test system: Nec (cholangiocellular carcinoma); assay: Cell count analysis Nec; format: cell-based, human; conditions: 200 nM gliotoxin, 72 h
Description: as §1, §2

HCT-15 = conditions: cited from earlier work

Structure (SMILES): CN1C(=O)[C@]23CC4=CC=C[C@H](O)[C@H]4N2C(=O)[C@@]1(CO)SS3 [gliotoxin, [3R-(3α,5aβ,6β,10aα)]-2,3,5a,6-tetrahydro-6-hydroxy-3-(hydroxymethyl)-2-methyl-10H-3,10a-epi-dithiopyrazino[1,2-a]indol-1,4-dion]
- IC50 with regard to cell viability (mouse cell line P388): 5,8 ng/ml
- mean reduction of cell numbers compared to vehicle treated controls [1]: 67%
- induction of apoptosis (probidium-iodide+/annexinV+) [2]: resistant
- effect on the cell count [3]: no significant effect
- IC50 with regard to cell viability [4]: 0.014 µg/mL
- CD23 expression (CD23): loss of the CD23 expression
- effect on cell count (607B (melanoma); 607B, 200 nM gliotoxin, 72 h): very effective
- cytotoxicity in dose range experiment (cell count) (607B (melanoma); 607B, 25, 50, 100 and 200 nM, 24 h): clear dose dependent cytotoxicity
- mean value of apoptosis (B-CLL cells; B-CLL cells cultured 24 h with 0.2 μM gliotoxin, n=10): 73%
- response (B-CLL cells; B-CLL-cases, 0.2 μM (60 ng/ml)): ~100%
- apoptosis (B-CLL cells; TPA-stimulated B-CLL cells): 73%
- apoptosis (B-CLL cells; non-stimulated B-CLL cells): 54%
- induction of apoptosis (probidium-iodide+/annexinV+) (Jurkat (T-ALL)): resistant
- mean reduction of cell numbers compared to vehicle treated controls [5]: 93%
- IC50 with regard to cell viability (HCT-15): 0.039 µg/mL
